Consider five compounds from paper PMC6326535, “Total Synthesis of Xanthoangelol B and Its Various Fragments: Toward Inhibition of Virulence Factor Production of Staphylococcus aureus” (Journal of Medicinal Chemistry, 2018).

On the set-up of data set [1]: method as in PMID 22452965. Particulars: mice, single dose study; cited from earlier work.
The next data set deals with SaeRS TCS. The experiment in a line: microbe, parasite or virus in culture. It counts as cell-based, Staphylococcus aureus USA300. The conditions noted are these: for inhibition of the SaeRS TCS: at 20 μM; for IC50 / IC90: Staphylococcus aureus; for IC50: USA300, 8 h, read-out: IC50 against the SaeRS GFP reporter; for IC90: read-out: IC90 for the SaeRS GFP reporter.
The next data set concerns Gram-positive bacteria. Particulars: cited from earlier work.
A further data set relates to saeS knockout S. aureus. It counts as in vivo, Galleria mellonella. The conditions noted are these: for reduction in CFU compared to the wild type infection group: saeS knockout infection, after 72 h.
Data set [2] relates to methicillin-resistant S. aureus USA300. The data set can be described thus: cells. It counts as cell-based, Staphylococcus aureus.
Data set [3] relates to HeLa cells.
For data set [4], the system named is HeLa cells. The experiment in a line: LDH release cytotoxicity assay. It counts as cell-based. The conditions noted are these: for IC50: Homo sapiens, HeLa, 72 h, read-out: IC50 for HeLa cell survival. On the technique in general: LDH leaks from cells whose membrane has failed.
In data set [5] the target is SaeS phosphotransferase (PT) activity (Staphylococcus aureus, UniProt Q840P7). The format is biochemical. Particulars: radioactively phosphorylated SaeS in the presence of SaeR.
Sequence of SaeS phosphotransferase (PT) activity (Q840P7 118-351): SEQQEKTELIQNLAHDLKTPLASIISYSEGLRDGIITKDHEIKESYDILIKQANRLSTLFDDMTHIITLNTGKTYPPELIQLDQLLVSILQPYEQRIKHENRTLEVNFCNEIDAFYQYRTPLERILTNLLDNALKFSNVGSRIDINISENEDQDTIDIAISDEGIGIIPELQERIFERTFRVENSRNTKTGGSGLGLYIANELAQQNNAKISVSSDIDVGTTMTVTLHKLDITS
For data set [6], the target named is minimal kinase domain of SaeS / MBP-SaeS (Staphylococcus aureus, UniProt Q840P7). It counts as binding. The conditions noted are these: 1.0 mM compound, 0.1 mM SaeS or 30 μM MBP-SaeS.
Sequence of minimal kinase domain of SaeS / MBP-SaeS (Q840P7 118-351): as above
For data set [7], the system named is S. aureus USA300. It counts as in vivo, Galleria mellonella. The conditions noted are these: 72 h; for survival compared to the vehicle control: 5 × 10^6 CFU.
Data set [8] relates to S. aureus USA300. It counts as in vivo, Galleria mellonella. Particulars: for bacterial burden compared to the vehicle control: dose of approximately 1 mg/kg.
Data set [9] deals with S. aureus USA300. The conditions noted are these: for growth of S. aureus: at (up to) 64 μM, up to 20 h; for bacterial growth: 8 h.
Procedure: Figure 1 Various concentrations of compounds were used to treat the USA300-Phlam GFP strain, and GFP expression was analyzed at 8 h. […] All the experiments were performed in triplicates, and significance was compared with control (no treatment) using one-way ANOVA.
56 at the concentration in the range from 2 μM to 64 μM. The cell density w as m onitored as the
optical density at 600 nm.
B act eri al growt h for 8 h i n t he presence of PM-56; C, B acterial growth for 20 h in the presence of
xant hoangel ol B 1; D, B act eri al growt h for 20 hours i n t he presence of PM-56. All the experi m ents
were perform ed in triplicates.
The subject of data set [10] is hla, aur, γ-hemolysin, staphylokinase, sarA. The format is cell-based, Staphylococcus aureus.
The target in a further data set is AgrC (Staphylococcus aureus, UniProt O07911). It counts as biochemical. The conditions noted are these: for IC50: 5 μM protein, autokinase activity.
Sequence of AgrC (O07911 206-430 limits assumed): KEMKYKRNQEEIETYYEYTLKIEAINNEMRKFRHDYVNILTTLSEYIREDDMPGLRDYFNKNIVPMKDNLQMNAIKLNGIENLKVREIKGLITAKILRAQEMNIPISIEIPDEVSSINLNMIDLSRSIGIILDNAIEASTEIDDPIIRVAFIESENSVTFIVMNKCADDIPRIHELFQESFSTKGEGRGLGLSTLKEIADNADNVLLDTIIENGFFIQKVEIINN
Data set [11] addresses minimal kinase domain of SaeS (Staphylococcus aureus, UniProt Q840P7). The experiment in a line: biochemical.
The next data set addresses kinase domain of SaeS (Staphylococcus aureus, UniProt Q840P7). The experiment in a line: biochemical.
[12] abbreviates: Staphylococcus aureus, USA300, Erythrocyte, 8 h, read-out: IC50 for the inhibition of erythrocyte hemolysis, human RBCs, 8 h incubation of USA300 with compound.
The mark [13] stands for this setting: read-out: IC50 for the inhibition of erythrocyte hemolysis, human RBCs, 8 h incubation of USA300 with compound.

Like-named read-outs stand apart in the source and are kept apart here. A value given as a limit tells only on which side of the number the result lay.

Sequence of minimal kinase domain of SaeS (Q840P7 118-351): as the sequence (Q840P7 118-351) above
Sequence of kinase domain of SaeS (Q840P7 118-351): as above

For `CC(C)=CCC/C(C)=C/Cc1c(O)ccc(C(=O)/C=C/c2ccc(O)cc2)c1O` [xanthoangelol], in data set [1], the “absorption and distribution after oral administration” value is “absorbed and distributed rapidly”; the absorption efficiency result was “low”. In addition, in the data set on SaeRS TCS, the “inhibition of the SaeRS TCS” value is “did not show inhibitory activity”. Further, in the data set on Gram-positive bacteria, the “antibacterial activity against Gram-positive bacteria” value was “shown to have an antibacterial activity”.
Usually IC50 stands for the midpoint of a concentration-inhibition curve. A word on the IC90: it is the point of the concentration-response curve where the effect stands at 90%. As usually defined, the Kd is a measure of binding affinity in units of concentration. Low readings indicate higher affinity, high ones lower affinity. On to `C=C(C)C(O)CC/C(C)=C/Cc1c(O)ccc(C(=O)CC(O)c2ccc(O)cc2)c1O` (centres unmarked) [PM-56, 1-(2,4-Dihydroxy-3-(6-hydroxy-3,7-dimethylocta-2,7-dien-1-yl)phenyl)-3-hydroxy-3-(4-hydroxyphenyl)propan-1-one], for which the “survival rate of G. mellonella infected with the knockout strain” value with saeS knockout S. aureus (2.131 mg/kg body weight every 12 h for 72 h) is 90%. The “reduction in CFU compared to the wild type infection group” value with saeS knockout S. aureus (2.131 mg/kg) is given as 83.3%. For the same compound, the half-inhibitory concentration (IC50) worked out at 3.97 µM in data set [2] (setting [12]); 4 µM in data set [2] (setting [13]); 28.9 µM in the data set on HeLa cells [4]; 4.3 µM with SaeRS TCS; 140 µM at AgrC; 160 µM in data set [11]. The figures for the protection from hemolysis entry in data set [2] (at 4 μM) and in data set [2] (at 8 μM) were “visible protection” and “comparable level of protection to that of saeS knockout mutants”, respectively. In addition, in the data set on HeLa cells [3], the “visible toxicity to HeLa cells” value is on record as “did not produce substantially visible toxicity”. The “cytotoxicity IC50 relative to IC50 for the GFP-reporter inhibition” value in the data set on HeLa cells [4] was found to be 7 fold. The “inhibition of phosphotransferase (PT) activity” value in data set [5] is given as “no inhibition was observed”. In addition, the “binding to SaeS by 1D CPMG and 1D STD NMR” value in [6] is “specifically binds to SaeS”. Moreover, in the data set with S. aureus USA300 [7] (2.1 mg/kg every 12 h), the “survival compared to the vehicle control” value is 3.5 fold. The survival with S. aureus USA300 [7] (3.2 mg/kg every 12 h) is given as 90%; in the data set on S. aureus USA300 [7] (4.3 mg/kg every 12 h), “complete survival”. In the data set on S. aureus USA300 [8] (4.3 mg/kg), the “decline of bacterial burden” value was 1.84 log10 CFU/worm. In addition, the “bacterial burden compared to the vehicle control” value in the data set with S. aureus USA300 [8] is “sharp decrease”. Also, the “inhibitory activity against SaeRS” value with SaeRS TCS is listed as “excellent inhibitory activity”. For the same compound, the concentration for an effect of 90% (IC90) in the data set on SaeRS TCS came to 10 µM. Further, in the data set with S. aureus USA300 [9], the “growth of S. aureus” value is given as “comparable growth to the control”. In addition, in the data set with S. aureus USA300 [9] (at up to 16 μM), the bacterial growth result is reported as “did not disrupt bacterial growth”. For the same compound, the “level of sarA transcription” value in data set [10] was “not significantly affected”. Moreover, the “higher activity than 1 for AgrC” value at AgrC turned out to be 2.4 fold. Besides, the “higher activity than 1 for SaeS” value in [11] worked out at 1.4 fold. Also, on kinase domain of SaeS, the affinity, expressed as Kd, was 6.8 µM.
Regarding `C=C(C)C(O)CC/C(C)=C/Cc1c(O)ccc(C(=O)/C=C/c2ccc(O)cc2)c1O` (centres unmarked) [Compound 1, Xanthoangelol B], the “survival rate of G. mellonella infected with the knockout strain” value in the data set with saeS knockout S. aureus (2.042 mg/kg body weight every 12 h for 72 h) turned out to be 70%. In the data set with saeS knockout S. aureus (2.042 mg/kg), the “reduction in CFU compared to the wild type infection group” value stood at 76.8%. Also, the concentration for half-maximal inhibition (IC50) in data set [2] (setting [12]) turned out to be 4.62 µM; in data set [2] (setting [13]) it was 4.6 µM; in the data set with HeLa cells [4], 19.7 µM; in the data set on SaeRS TCS it was 2.1 µM; at AgrC, 339 µM; in data set [11], 220 µM. The protection from hemolysis result is on record as “visible protection” in data set [2] (at 4 μM) and “comparable level of protection to that of saeS knockout mutants” in [2] (at 8 μM). The “visible toxicity to HeLa cells” value with HeLa cells [3] is on record as “did not produce substantially visible toxicity”. Moreover, in the data set with HeLa cells [4], the “cytotoxicity IC50 relative to IC50 for the GFP-reporter inhibition” value was 10 fold. Besides, the “inhibition of phosphotransferase (PT) activity” value in data set [5] is reported as “no inhibition was observed”. The “survival compared to the vehicle control” value with S. aureus USA300 [7] (2.0 mg/kg every 12 h) came out at 3.5 fold. Moreover, the survival is 90% in the data set with S. aureus USA300 [7] (3.1 mg/kg every 12 h) and “complete survival” with S. aureus USA300 [7] (4.1 mg/kg every 12 h). For the same compound, in the data set with S. aureus USA300 [8] (4.1 mg/kg), the “decline of bacterial burden” value is 1.72 log10 CFU/worm. In addition, the “bacterial burden compared to the vehicle control” value in the data set with S. aureus USA300 [8] was “sharp decrease”. Besides, the “inhibitory activity against SaeRS” value in the data set with SaeRS TCS was “excellent inhibitory activity”. Further, the IC90 in the data set on SaeRS TCS was determined as 8 µM. Besides, the “growth of S. aureus” value in the data set on S. aureus USA300 [9] is given as “severely inhibited”. The bacterial growth result with S. aureus USA300 [9] (at up to 8 μM) is reported as “did not disrupt bacterial growth”. Further, the “concentration from which growth inhibition started” value with S. aureus USA300 [9] (growth followed up to 20 h) is not below 16 µM. Besides, the “level of sarA transcription” value in [10] is listed as “not significantly affected”. Also, the “lower activity for AgrC compared to that for SaeS” value at AgrC was 1.5 fold. For the same compound, the affinity at kinase domain of SaeS, expressed as Kd, was 40 µM.
`COc1ccc(C(=O)/C=C/c2ccc(O)cc2)c(O)c1C/C=C(\C)CCC=C(C)C` [xanthoangelol F, reference compound]: the “inhibition of the SaeRS TCS” value in the data set with SaeRS TCS is reported as “did not show inhibitory activity”.
Regarding 4-hydroxyderricin, the “antibacterial activity against Gram-positive bacteria” value with Gram-positive bacteria is on record as “shown to have an antibacterial activity”.
